Source: patent US20200046870A1, “MATERIALS COMPRISING HYDROPHOBICALLY-MODIFIED BIOPOLYMER” (GEL-E LIFE SCIENCES, priority 2016, published 2020)

Test system: Methicillin-resistant Staphylococcus aureus (MRSA)
Experiment: antimicrobial properties against MRSA (log killing)
Assay type: cell-based
Conditions: high dose (100 μg/ml)
Description: FIG. 2 compares the antimicrobial properties of chitosan and hydrophobically modified chitosan, alongside ampicillin, against Methicillin-resistant Staphylococcus aureus (MRSA). Hm-chitosan at 0.5 wt % achieves a log killing of >2, whereas native chitosan (0.5 wt %) achieves a log killing of ˜1. In contrast, ampicillin at high dose (100 μg/ml) achieves only ˜0.5 log killing.

## CC1(C)S[C@@H]2[C@H](NC(=O)[C@H](N)c3ccccc3)C(=O)N2[C@H]1C(=O)O [ampicillin]
  log killing: ~0.5 log
